Literature values as cited in patent publication US20050267140A1, “Method for treating abnormal cell growth” (priority 2004, published 2005).
Where two headings read alike, the source gives them in different places.

System: previously untreated patients with metastatic colorectal cancer
[1] = capecitabine treatment arms, 2500 mg/m^2/day for 14 days every 3 weeks

In the case of CCCCCOC(=O)Nc1nc(=O)n([C@@H]2O[C@H](C)[C@@H](O)[C@H]2O)cc1F [capecitabine, 5′-deoxy-5-fluoro-N-[(pentyloxy)-carbonyl]-cytidine], the Median survival (European trial (N=602), p=0.30) is listed as 13.3 months, the Median survival (US trial (N=605), p=0.24) is listed as 12.5 months and the “Grade 3-4 diarrhea” value [1] is listed as 14%. For the same molecule, the “Grade 3-4 hand-foot syndrome” value [1] was 17%, the Overall response rate (first of the 2 trials as listed ('respectively'), p=0.014) was 21% and the Overall response rate (second of the 2 trials as listed ('respectively'), p=0.03) was 21%.
